In US20020182240A1, “Cosmetics with hydrofluoroether (HFE)” (Daikin Industries, priority 1997, published 2002):

Key:
[1] = tested on: the skin; test: use of the cosmetic applied onto the skin (feeling in use, evaporation of the HFE, skin moisture); assay type: in vivo; conditions: after the cosmetic was applied onto the skin
Method: 50% by weight of a perfluoropolyether (FOMBLIN HC/04 manufactured by Audimont) (viscosity at 25° C.: 70 mPa·s) was mixed with 50% by weight of C4F9OCH3 (HFE A) (viscosity at 25° C.: 0.6 mPa·s) under stirring to give a solution. Thereafter, a very small amount of a perfume was added to give a non-aqueous lotion. This non-aqueous lotion was felt very smooth in use.
The powder ingredients in the formulation shown in Table 2 were mixed and ground with an atomizer and then transferred to a Henschel mixer. Then FOMBLIN HC/04 was added thereto, and the mixture was uniformly mixed. The mixture was dispersed in […] (HFE B) (viscosity at 25° C.: 0.7 mPa·s) to give a solvent dispersion-type foundation. This solvent dispersion-type foundation was felt very smooth in use.
The ingredients (1) to (8) in the formulation shown in Table 3 were mixed and ground in a colloid mill. After this mixture was heated at 80° C., the ingredients (9) to (13) which had been heated and mixed at 80° C. were added thereto and emulsified uniformly in a homomixer. The ingredient (14) was added to this emulsion, further emulsified uniformly in a homomixer, and cooled to room temperature to give a liquid foundation. This liquid foundation was felt very smooth in use. […]

[2] = viscosity by Brookfield type viscometer or capillary tube viscometer; assay type: physicochemical
Method: The viscosity of the fluorine-containing oil is e.g. at least 5 mPa·s, particularly 10 to 10,000 mPa·s. The viscosity of the fluorine oil (and the HFE) was measured by a Brookfield type viscometer or a capillary tube viscometer.

| Molecule | evaporation of the HFE [1] | viscosity at 25° C. [2] [mPa·s] |
| --- | --- | --- |
| CCOC(F)(F)C(F)(F)C(F)(F)C(F)(F)F [HFE B, C4F9OC2H5] | evaporated rapidly | 0.7 |
| FC(F)C(F)(F)OCC1(COCC(COC(F)(F)C(F)F)(COC(F)(F)C(F)F)COC(F)(F)C(F)F)COC1 [chemical formula B] |  | 40 |
| C4F9OCH3 [HFE A] | evaporated rapidly | 0.6 |
